Source: paper PMC10709440, “High-throughput ligand profile characterization in novel cell lines expressing seven heterologous insect olfactory receptors for the detection of volatile plant biomarkers” (Scientific Reports, 2023)
Where two headings read alike, the source gives them in different places.

Biological target: T1, Drosophila OR85b (Drosophila melanogaster, UniProt Q9VHQ7)
T1 construct: expressed in transfected cells
T1 sequence (Q9VHQ7 1-390): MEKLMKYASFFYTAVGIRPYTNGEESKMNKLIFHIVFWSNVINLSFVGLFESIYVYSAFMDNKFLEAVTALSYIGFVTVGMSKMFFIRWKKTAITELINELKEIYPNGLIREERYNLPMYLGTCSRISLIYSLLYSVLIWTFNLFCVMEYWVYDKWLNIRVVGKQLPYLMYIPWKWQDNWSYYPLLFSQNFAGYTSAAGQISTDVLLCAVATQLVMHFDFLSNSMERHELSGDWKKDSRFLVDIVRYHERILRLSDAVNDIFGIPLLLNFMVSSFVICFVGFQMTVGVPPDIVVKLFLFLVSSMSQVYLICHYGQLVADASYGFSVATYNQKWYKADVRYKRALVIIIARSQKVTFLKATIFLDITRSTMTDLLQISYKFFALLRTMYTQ
T1 sequence (Q9VNB5 1-486 partner): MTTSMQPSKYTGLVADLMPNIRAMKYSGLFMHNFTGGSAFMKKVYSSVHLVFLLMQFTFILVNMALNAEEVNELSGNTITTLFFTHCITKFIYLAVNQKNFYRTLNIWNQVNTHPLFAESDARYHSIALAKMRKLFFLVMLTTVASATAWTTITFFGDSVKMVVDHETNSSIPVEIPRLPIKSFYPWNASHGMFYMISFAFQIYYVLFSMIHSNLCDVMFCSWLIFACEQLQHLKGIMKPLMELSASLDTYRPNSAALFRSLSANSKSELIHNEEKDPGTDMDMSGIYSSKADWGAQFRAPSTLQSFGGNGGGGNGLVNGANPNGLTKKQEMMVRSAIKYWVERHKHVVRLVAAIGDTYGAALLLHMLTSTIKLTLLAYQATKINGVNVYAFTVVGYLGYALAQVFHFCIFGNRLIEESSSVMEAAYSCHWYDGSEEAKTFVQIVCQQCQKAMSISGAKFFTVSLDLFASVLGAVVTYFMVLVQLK
Assay: Calcium ion fluorescence (GCaMP6) assay, OR85b stable HEK293 cell line
Assay type: cell-based
Parameters: key to DF norm AVERAGE OR85b: VOC ∆F divided by the plate's mean ∆F response to 50 µM VUAA1
Conditions: for Average response / OR85b response (VUAA1-normalized) at 1 μM / OR85b response (VUAA1-normalized) at 10 μM / OR85b response (VUAA1-normalized) at 100 μM: OR85b cell line; for Average response: VUAA1-normalized response, mean of biological replicates
Experimental: These VUAA1 normalized ∆F values were used to compare the different receptors and ligands.
The concentration-dependent effect of the reference ligands on their cognate cell lines was examined in more detail. Twelve different ligand concentrations were measured on each cell line in an overall 0.01 μM to 100 μM concentration range with 5 repetitions with three technical replicates each time.
Twelve thousand to 18,000 cells were plated into each well of a black wall, transparent bottom 384-well microplate (Greiner) 48 h or 72 h before the measurements and were simultaneously treated with 1 μg/mL doxycycline. […] The plate has 24 columns, thus we could record responses in up to eight different cell lines in each plate. On the day of the experiment, the growth medium was replaced with 20 µL assay buffer/well (140 mM NaCl, 5 mM KCl, 2 mM CaCl2, 1 mM MgCl2, 5 mM HEPES-Na, 20 mM glucose, pH 7.3, 340 mOsm). […] Baseline fluorescence (F0) was recorded for 5 s, after which 7 µL VOC buffer (140 mM NaCl, 5 mM KCl, 2 mM CaCl2, 1 mM MgCl2, 5 mM HEPES-Na, 31 mM glucose, 0.1% DMSO, pH 7.3, 340 mOsm) was injected into each well in one row and the fluorescence response was recorded for an additional 30 s, at a rate of one read/sec. VOC solutions (VOC buffer with 4× concentration of the final measured VOC concentration, 9 µL/well was injected) were measured on the same wells in a second round with the same protocol. Each individual concentration of a specific VOC sample was recorded in three wells for the same cell line on the same microplate. The raw data were exported in xls file format, F0 and FMAX values, and the fluorescence intensity changes (∆F) were calculated in Excel (Microsoft) (Supplementary file Data summary.xlsx) using the following equation: ΔF=FMAX-F0/F0 (see also Fig. 1C). On each plate, we recorded the response of each cell line to 50 µM VUAA1. The average of these ∆F values of each cell line were used to calculate the VUAA1-normalized values for the rest of the plate, by dividing VOC response ∆F values by the average VUAA1 response ∆F value of the corresponding OR cell line. Each VOC-OR combination was measured three times as technical replicates. […] The average of these replicates were used as one ∆F and VUAA1-normalized ∆F in the following analysis.
In the next rows we tested the reference VOCs (or other VOCs known to activate the corresponding cell lines), in order to test if all cell lines are responsive. The remaining rows were used to test VOCs with unknown effect.
The recorded FMAX, F0, ∆F, VUAA1-normalized ∆F values, as well as the OR name, the name of the tested sample, and the final concentration for each well were copied into supplementary file Data summary.xlsx, that was used to summarize all the plates recorded. Here, the averages of the measurements were calculated for each receptor-VOC-concentration combination.

[1] = concentration 1, normalized fluorescence change, values below 0.05 threshold given as 0
[2] = concentration 10, normalized fluorescence change, values below 0.05 threshold given as 0
[3] = concentration 100, normalized fluorescence change, values below 0.05 threshold given as 0
[4] = HEK293, read-out: OR85b Average response (VUAA1-normalized)
[5] = HEK293, read-out: OR85b response (VUAA1-normalized response)
[6] = ligand concentration 1 (unit not given), threshold 0.05, below shown as 0
[7] = ligand concentration 10 (unit not given), threshold 0.05, below shown as 0
[8] = ligand concentration 100 (unit not given), threshold 0.05, below shown as 0

| Structure (SMILES) | Average response (cc. 1 µM) | Average response (cc. 10 µM) | Average response (cc. 100 µM) | DF norm AVERAGE OR85b [1] | DF norm AVERAGE OR85b [2] | DF norm AVERAGE OR85b [3] | activation at 1 µM [5] | activation at 10 µM [5] | activation at 100 µM [5] | DF norm AVERAGE OR85b [6] | DF norm AVERAGE OR85b [7] | DF norm AVERAGE OR85b [8] | also measured |
| --- | --- | --- | --- | --- | --- | --- | --- | --- | --- | --- | --- | --- | --- |
| C=C(C)C1CCC2(C)OC2C1 (single isomer, unassigned; (+)) [(+)-limonene oxide] | 0.00 | 0.00 | 0.00 | 0 | 0 | 0 |  |  |  |  |  |  | OR85b response (VUAA1-normalized response) (VOC concentration 1 μM): 0.00; OR85b response (VUAA1-normalized response) (VOC concentration 10 μM): 0.00; OR85b response (VUAA1-normalized response) (VOC concentration 100 μM): 0.00 |
| Cc1ccc(C)c(C)c1 [1,2,4-trimethylbenzene] | 0.0436 | 0.0741 | 0.12 | 0 | 0.0741 | 0.1212 | 0% | 7.41% | 12% |  |  |  | activation at 1 µM [4]: 4%; activation at 10 µM [4]: 7%; activation at 100 µM [4]: 12% |
| COc1cccc(OC)c1 [1,3-dimethoxy benzene] | 0.00 | 0.0268 | 0.0367 | 0 | 0 | 0 | 0% | 0% | 0% |  |  |  |  |
| CCCCCCCCC(CO)CCCCCC (stereo not drawn) [2-hexyl-1-decanol] | 0.13 | 0.07 | 0.08 | 0.1336 | 0.06997 | 0.07977 | 13% | 7% | 8% |  |  |  |  |
| CCCC(O)CC (stereo not drawn) [3-hexanol] | 0.00 | 0.10 | 0.0225 | 0 | 0.09908 | 0 | 0% | 10% | 0% |  |  |  |  |
| C=CC(O)C/C=C\CC (stereo not drawn) [(5Z)-octa-1,5-dien-3-ol] | 0.07 | 0.09 | 0.00 | 0.07163 | 0.08739 | 0 | 7% | 9% | 0% |  |  |  |  |
| C=C1[C@H]2CC[C@@H]3[C@H]2C(C)(C)CCC[C@]13C [(+)-longifolene] | 0.08 | 0.11 | 0.05 | 0.0834 | 0.1092 | 0 |  |  |  |  |  |  | OR85b response (VUAA1-normalized response) (VOC concentration 1 μM): 0.08; OR85b response (VUAA1-normalized response) (VOC concentration 10 μM): 0.11; OR85b response (VUAA1-normalized response) (VOC concentration 100 μM): 0.00 |
| C=C1CC[C@H]2O[C@]2(C)CC[C@@H]2[C@@H]1CC2(C)C [(-)-caryophyllene oxide] | 0.00 | 0.00 | 0.036 | 0 | 0 | 0 | 0% | 0% | 0% |  |  |  |  |
| CC1=CCC[C@@]2(C)[C@@H]3CC[C@]12CC3(C)C [(−)-α-neoclovene] | 0.00 | 0.00 | 0.0165 | 0 | 0 | 0 |  |  |  |  |  |  | OR85b response (VUAA1-normalized response) (VOC concentration 1 μM): 0.00; OR85b response (VUAA1-normalized response) (VOC concentration 10 μM): 0.00; OR85b response (VUAA1-normalized response) (VOC concentration 100 μM): 0.00 |
| CC/C=C\CCO [Z3-hexenol] | 0.0533 | 0.0426 | 0.00 |  |  |  |  |  |  |  |  |  | DF norm AVERAGE OR85b (ligand concentration 1 (unit not given), 0.05 threshold, values below shown as 0): 0.05333; DF norm AVERAGE OR85b (ligand concentration 10 (unit not given), 0.05 threshold, values below shown as 0): 0; DF norm AVERAGE OR85b (ligand concentration 100 (unit not given), 0.05 threshold, values below shown as 0): 0 |
| CC/C=C/CCO [e3-hexenol] | 0.00 | 0.00 | 0.0284 |  |  |  |  |  |  | 0 | 0 | 0 |  |
| CCc1ccccc1 [ethylbenzene] | 0.00719 | 0.00 | 0.00 |  |  |  | 0% | 0% | 0% | 0 | 0 | 0 |  |
| Cc1cccc(C)c1 [m-xylene] | 0.023 | 0.00 | 0.09 |  |  |  |  |  |  | 0 | 0 | 0.08801 | OR85b response (VUAA1-normalized) at 1 μM (VOC concentration 1 μM): 0.00; OR85b response (VUAA1-normalized) at 10 μM (VOC concentration 10 μM): 0.00; OR85b response (VUAA1-normalized) at 100 μM (VOC concentration 100 μM): 0.09 |
| Cc1ccccc1C [o-xylene] | 0.08 | 0.03 | 0.08 |  |  |  |  |  |  | 0.08035 | 0 | 0.08274 | OR85b response (VUAA1-normalized) at 1 μM (VOC concentration 1 μM): 0.08; OR85b response (VUAA1-normalized) at 10 μM (VOC concentration 10 μM): 0.00; OR85b response (VUAA1-normalized) at 100 μM (VOC concentration 100 μM): 0.08 |
| Cc1ccc(C)cc1 [p-xylene] | 0.0373 | 0.15 | 0.06 |  |  |  |  |  |  | 0 | 0.1515 | 0.06066 | OR85b response (VUAA1-normalized) at 1 μM (VOC concentration 1 μM): 0.00; OR85b response (VUAA1-normalized) at 10 μM (VOC concentration 10 μM): 0.15; OR85b response (VUAA1-normalized) at 100 μM (VOC concentration 100 μM): 0.06 |
| C=C1CCC2(C(C)C)CC12 (stereo not drawn) [sabinene] | 0.0647 | 0.0439 | 0.09 |  |  |  |  |  |  | 0.06468 | 0 | 0.08701 | OR85b response (VUAA1-normalized) at 1 μM (VOC concentration 1 μM): 0.0647; OR85b response (VUAA1-normalized) at 10 μM (VOC concentration 10 μM): 0.00; OR85b response (VUAA1-normalized) at 100 μM (VOC concentration 100 μM): 0.09 |
